ChEMBL document CHEMBL4304835 (ACS Med Chem Lett, 2019)

Columns and labels:
[1] = target: Bromodomain-containing protein 4 (Homo sapiens, UniProt O60885); test: Displacement of Bio-JQ1 from recombinant human His6 tagged BRD4 bromodomain 1 by alphascreen assay
[2] = target: Transcription initiation factor TFIID subunit 1 (Homo sapiens, UniProt P21675); test: Displacement of biotinylated probe from human TAF1 bromodomain 2 (1522 to 1656 residues) expressed in Escherichia coli BL21 (DE3) by alphascreen assay
Chain of Transcription initiation factor TFIID subunit 1 (P21675 whole entry, the tested form may be a part): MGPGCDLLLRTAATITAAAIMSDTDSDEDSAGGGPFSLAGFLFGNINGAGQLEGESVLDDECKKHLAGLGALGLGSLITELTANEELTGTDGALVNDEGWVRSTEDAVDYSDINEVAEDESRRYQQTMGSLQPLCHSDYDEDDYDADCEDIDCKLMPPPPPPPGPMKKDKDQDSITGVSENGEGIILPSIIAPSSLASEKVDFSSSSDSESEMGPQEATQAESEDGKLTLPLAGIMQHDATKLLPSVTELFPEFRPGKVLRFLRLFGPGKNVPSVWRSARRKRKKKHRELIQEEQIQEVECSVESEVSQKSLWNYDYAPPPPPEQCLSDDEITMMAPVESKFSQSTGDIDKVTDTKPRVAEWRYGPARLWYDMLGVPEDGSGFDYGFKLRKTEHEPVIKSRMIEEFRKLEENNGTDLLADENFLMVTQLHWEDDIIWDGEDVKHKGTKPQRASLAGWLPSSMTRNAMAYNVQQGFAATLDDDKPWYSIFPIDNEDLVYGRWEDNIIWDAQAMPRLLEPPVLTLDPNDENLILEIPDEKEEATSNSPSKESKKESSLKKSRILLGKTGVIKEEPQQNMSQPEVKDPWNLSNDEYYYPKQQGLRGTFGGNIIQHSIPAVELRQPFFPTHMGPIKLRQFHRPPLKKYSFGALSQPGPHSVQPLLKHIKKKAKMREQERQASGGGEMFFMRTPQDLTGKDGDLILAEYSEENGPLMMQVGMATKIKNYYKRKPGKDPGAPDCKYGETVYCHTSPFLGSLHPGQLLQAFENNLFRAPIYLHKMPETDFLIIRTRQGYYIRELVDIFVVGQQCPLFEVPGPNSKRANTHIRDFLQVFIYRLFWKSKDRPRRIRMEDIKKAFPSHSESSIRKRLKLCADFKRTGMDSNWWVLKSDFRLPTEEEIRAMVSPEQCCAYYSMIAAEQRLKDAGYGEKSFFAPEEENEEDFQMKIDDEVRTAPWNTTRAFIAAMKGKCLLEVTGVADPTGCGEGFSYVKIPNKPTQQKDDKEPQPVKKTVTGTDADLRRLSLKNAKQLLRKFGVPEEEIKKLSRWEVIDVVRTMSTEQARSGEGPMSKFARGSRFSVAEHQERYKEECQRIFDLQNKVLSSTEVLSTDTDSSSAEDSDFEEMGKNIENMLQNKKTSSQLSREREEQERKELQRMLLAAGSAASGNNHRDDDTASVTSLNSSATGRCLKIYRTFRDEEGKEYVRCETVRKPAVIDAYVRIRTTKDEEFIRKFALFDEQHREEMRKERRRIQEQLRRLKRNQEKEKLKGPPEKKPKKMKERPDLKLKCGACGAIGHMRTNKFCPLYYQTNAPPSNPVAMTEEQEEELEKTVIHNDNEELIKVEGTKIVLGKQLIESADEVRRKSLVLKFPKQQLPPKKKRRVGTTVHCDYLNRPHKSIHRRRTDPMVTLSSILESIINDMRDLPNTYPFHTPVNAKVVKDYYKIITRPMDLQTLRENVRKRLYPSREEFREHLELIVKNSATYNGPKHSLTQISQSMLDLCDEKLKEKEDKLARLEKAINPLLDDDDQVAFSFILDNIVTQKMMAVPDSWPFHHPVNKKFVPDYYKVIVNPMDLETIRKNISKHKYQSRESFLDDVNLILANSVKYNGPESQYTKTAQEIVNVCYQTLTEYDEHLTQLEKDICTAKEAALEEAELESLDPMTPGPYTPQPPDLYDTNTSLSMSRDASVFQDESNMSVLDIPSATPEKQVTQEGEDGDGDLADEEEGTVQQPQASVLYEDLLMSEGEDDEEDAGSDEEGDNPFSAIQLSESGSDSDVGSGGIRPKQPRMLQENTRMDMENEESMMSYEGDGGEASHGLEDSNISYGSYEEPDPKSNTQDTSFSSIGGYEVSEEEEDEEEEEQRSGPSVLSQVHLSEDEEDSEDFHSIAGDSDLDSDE

| SMILES | IC50 [1] [nM] | IC50 [2] [nM] |
| --- | --- | --- |
| CC(C)Oc1cc(C(=O)NC2CCN(C)CC2)ccc1Nc1ncc2c(n1)N(C1CCCC1)[C@H](C)C(=O)N2C | 220 | 320 |
| C=CCCN1C(=O)[C@@H](C)N(C2CCCC2)c2nc(Nc3ccc(C(=O)N4CCC(O)CC4)cc3OC)ccc21 | 4400 | 570 |
| COc1cc(C(=O)N2CCC(O)CC2)ccc1Nc1ccc2c(n1)N(C1CCCCCC1)[C@H](C)C(=O)N2C | 220 | 240 |
| CC[C@@H]1C(=O)N(CC)c2cnc(Nc3ccc(C(=O)NC4CCN(C)CC4)cc3OC)nc2N1C1CCCC1 | 690 | 410 |
| COc1cc(C(=O)N2CCC(O)CC2)ccc1Nc1cc2c(cc1OC)N(C)C(=O)[C@@H](C)N2C1CCCC1 | 7300 | 750 |
| COc1cc(C(=O)NC2CCN(C)CC2)ccc1Nc1ccc2c(n1)N1CCCC[C@@H]1C(=O)N2C | 2700 | 63 |
| COc1cc(C(=O)N2CCC(O)CC2)ccc1Nc1cc2c(cc1C)N(C)C(=O)[C@@H](C)N2C1CCCC1 | 2100 | > 10000 |
| CC[C@@H]1C(=O)N(C)c2cnc(Oc3ccc(C(=O)NC4CCN(C)CC4)cc3OC)nc2N1C1CCCC1 | 620 | > 10000 |
| COc1cc(C(=O)N2CCC(O)CC2)ccc1Nc1ccc2c(n1)N1CCCC[C@@H]1C(=O)N2C | 7200 | 210 |
| COc1cc(C(=O)N2CCC(O)CC2)ccc1Nc1ccc2c(c1C)N(C)[C@H](C)C(=O)N2C | > 10000 | 980 |
| COc1cc(C(=O)N2CCC(O)CC2)ccc1Nc1ccc2c(n1)N(Cc1ccccc1)[C@H](C)C(=O)N2C | 240 | 720 |
| C=CCCN1C(=O)[C@@H](C)N(C2CCOCC2)c2nc(Nc3ccc(C(=O)NC4CCN(C)CC4)cc3OC)ccc21 | > 10000 | 82 |
| COc1cc(C(=O)N2CCC(O)CC2)ccc1Nc1cc2c(cc1F)N(C)C(=O)[C@@H](C)N2C1CCCC1 | 680 | 4600 |
| CC[C@@H]1C(=O)N(C)c2cnc(Nc3ccc(C(=O)NC4CCN(C)CC4)cc3)nc2N1C1CCCC1 | 280 | 150 |
| C[C@@H]1C(=O)N(C)c2ccc(Nc3ccc(C(=O)NC4CCN(C)CC4)cc3)nc2N1C1CCCC1 | 190 | 340 |
| CC[C@@H]1C(=O)Nc2cnc(Nc3ccc(C(=O)NC4CCN(C)CC4)cc3OC)nc2N1C1CCCC1 | > 10000 | > 10000 |
| C=CCN1C(=O)[C@@H](C)N(C2CCCC2)c2nc(Nc3ccc(C(=O)N4CCC(O)CC4)cc3OC)ccc21 | 4500 | 1700 |

These reach a lower IC50 [1]. Values come first.

| IC50 [1] [nM] | IC50 [2] [nM] | SMILES |
| --- | --- | --- |
| 37 | 16 | COc1cc(C(=O)NC2CCN(C)CC2)ccc1Nc1ccc2c(n1)N(C1CCCC1)[C@H](C)C(=O)N2C |
| 63 | 210 | CC[C@@H]1C(=O)N(C)c2cnc(Nc3ccc(C(=O)NC4CCN(C)CC4)cc3OC(C)C)nc2N1C1CCCC1 |
| 130 | 89 | CC(C)Oc1cc(C(=O)NC2CCN(C)CC2)ccc1Nc1ccc2c(n1)N(C1CCCC1)[C@H](C)C(=O)N2C |
| 62 | 110 | CC[C@@H]1C(=O)N(C)c2cnc(Nc3ccc(C(=O)NC4CCN(C)CC4)cc3OC3CCC3)nc2N1C1CCCC1 |
| 49 | < 10 | COc1cc(C(=O)NC2CCN(C)CC2)ccc1Nc1ccc2c(n1)N(C1CCOCC1)[C@H](C)C(=O)N2C |
| 140 | 38 | COc1cc(C(=O)N2CCC(O)CC2)ccc1Nc1ccc2c(n1)N(C1CCOCC1)[C@H](C)C(=O)N2C |
| 47 | 93 | COc1cc(C(=O)N2CCC(O)CC2)ccc1Nc1ccc2c(n1)N(C1CCCC1)[C@H](C)C(=O)N2C |
| 150 | 450 | CC[C@@H]1C(=O)N(C)c2ccc(Nc3ccc(C(=O)NC4CCN(C)CC4)cc3OC)nc2N1C1CCCC1 |
| 68 | 87 | C[C@@H]1C(=O)N(C)c2cnc(Nc3ccc(C(=O)NC4CCN(C)CC4)cc3)nc2N1C1CCCC1 |
| 110 | 580 | COc1cc(C(=O)N2CCC(O)CC2)ccc1Nc1ccc2c(c1)N(C1CCCC1)[C@H](C)C(=O)N2C |
| 140 | 300 | COc1cc(C(=O)N2CCC(O)CC2)ccc1Nc1ccc2c(n1)N(C1CCC(C)(C)C1)[C@H](C)C(=O)N2C (mixture of isomers) |
| 100 | > 10000 | CC[C@@H]1C(=O)N(C)c2cnc(N(C)c3ccc(C(=O)NC4CCN(C)CC4)cc3OC)nc2N1C1CCCC1 |
| 33 | 100 | CC[C@@H]1C(=O)N(C)c2cnc(Nc3ccc(C(=O)NC4CCN(C)CC4)cc3OC3CCCC3)nc2N1C1CCCC1 |
| 150 | 72 | COc1cc(C(=O)N2CCC(O)CC2)ccc1Nc1ccc2c(n1)N(C1CCCCC1)[C@H](C)C(=O)N2C |
| 48 | 31 | C[C@@H]1C(=O)N(C)c2ccc(Nc3ccc(C(=O)NC4CCN(C)CC4)cc3OC3CCCC3)nc2N1C1CCCC1 |
